The nature of assay [1]: P. falciparum Dd2 growth inhibitors, dose response, SYBR Green, dry powder samples, set 4 (AID 1159572). The class given is functional, cell-based.
The target of assay [2] is T1, Calpain-2 catalytic subunit (Sus scrofa, UniProt P43367).
T1 sequence (P43367 whole entry): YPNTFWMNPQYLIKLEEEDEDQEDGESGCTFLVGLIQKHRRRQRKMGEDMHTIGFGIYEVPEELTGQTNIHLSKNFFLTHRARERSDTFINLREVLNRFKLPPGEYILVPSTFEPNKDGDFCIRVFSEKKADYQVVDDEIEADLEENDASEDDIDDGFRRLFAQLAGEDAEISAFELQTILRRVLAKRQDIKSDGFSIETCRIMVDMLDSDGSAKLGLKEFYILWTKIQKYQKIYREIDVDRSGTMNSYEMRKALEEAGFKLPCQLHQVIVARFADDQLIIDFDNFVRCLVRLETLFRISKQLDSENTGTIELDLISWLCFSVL
Description: pig calpain II inhibitor potency, dose response, biochemical, fluorogenic peptide substrate (AID 1420). The class given is functional.

Assay [3] in a line: Vero cell cytotoxicity, dose response, cytotoxicity control for Vif-APOBEC3G degradation inhibitor project, Vero cells (AID 1117358). The class given is functional. Particulars: Human immunodeficiency virus 1, Vero.
The nature of assay [4]: P. falciparum Dd2 growth inhibitors, dose response, SYBR Green, cherry-picked samples (AID 1159567). The class given is functional, cell-based.
The nature of assay [5]: HepG2 cell cytotoxicity, dose response, cytotoxicity control, cherry-picked samples (AID 1159577). The assay is classed as functional, cell-based.
Assay [6] is described as follows: P. falciparum Dd2 growth inhibitors, dose response, SYBR Green, dry powder samples, set 9 (AID 1159568). The class given is functional, cell-based.
A further assay addresses Transthyretin (Homo sapiens, UniProt P02766). Description: Luminescence-based cell-based high throughput dose response assay to identify activators of Transthyretin (TTR) transcription. The class given is functional.
Assay [7] in a line: A2780 ovarian cancer cell cytotoxicity, dose response, cytotoxicity control, plate reader, dry powder samples (AID 743046). The class given is functional, cell-based.
For another assay, the target named is Paired box protein Pax-8 (Homo sapiens, UniProt Q06710). Description: inhibitors of PAX8-driven TPO luciferase reporter, dose response, RMG-I cells, cherry-pick (AID 687027).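 Note: luciferase reporter driven by Pax8 target thyroperoxidase promoter measured by SteadyGlo luminescence.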 The class given is functional, cell-based.
Assay [8] is described as follows: cytotoxicity in COV434 cells, dose response, cytotoxicity control for PAX8 inhibitor project, cell-based, plate reader, dry powder, SA7 (AID 743145). The class given is functional.
The nature of assay [9]: PAX2 cell-based inhibition, dose response, selectivity assay for PAX8 inhibitor project, plate reader, dry powder samples (AID 743048).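 Note: HEK293 cells carrying a WT1 promoter luciferase reporter driven by expressed Pax2; potency is for inhibition of Pax2 driven reporter signal.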 The class given is functional.
Assay [10] is described as follows: cytotoxicity in COV362 ovarian cancer cells, dose response, cytotoxicity control for PAX8 inhibitor project, cell-based, plate reader, dry powder, SA12 (AID 743144). The class given is functional.
Assay [11] is described as follows: non-specific cell cytotoxicity, dose response, cytotoxicity control for PAX8 inhibitor project, plate reader, dry powder samples (AID 743021). The class given is functional, cell-based.
The nature of assay [12]: IOSE-T80 ovarian epithelial cell cytotoxicity, dose response, cytotoxicity control for PAX8 inhibitor project, plate reader, dry powder samples (AID 743045). The assay is classed as functional, cell-based.
In a further assay the test system is INS1. Description: beta cell apoptosis inhibitors, cytokine rescue, dose response, luminescence, retest (AID 449756).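 Note: cell death triggered by IL-1 beta plus TNF-alpha plus IFN-gamma mixture; protective hits raise ATP signal compared with cytokine alone wells.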 Particulars: Rattus norvegicus. The class given is functional, cell-based.
The nature of assay [13]: cytotoxicity in OV-90 ovarian cancer cells, dose response, PAX8 inhibitor project, cell-based, plate reader, dry powder, SA8 (AID 743149). The class given is functional.
The nature of assay [14]: NIH:OVCAR-3 ovarian cancer cell cytotoxicity, dose response, PAX8 inhibitor project, plate reader, dry powder samples (AID 743044). The class given is functional, cell-based.
The nature of assay [15]: PAX5 activity inhibitors, dose response, selectivity assay for PAX8 inhibitor project, cell-based, plate reader, dry powder samples (AID 743047).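 Note: HEK293 cells carrying a Pax5 driven CD19 promoter luciferase reporter; potency of inhibitors that lower reporter luminescence.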 The assay is classed as functional.
Assay [16] can be described thus: cytotoxicity in OVCAR4 cells, dose response, cytotoxicity control for PAX8 inhibitor project, cell-based, plate reader, dry powder, SA11 (AID 743150). The assay is classed as functional. Particulars: OVCAR-4.
Assay [17] is described as follows: cytotoxicity dependent on PAX8, dose response, cell-based, plate reader, dry powder (AID 743049). The assay is classed as functional.
The target in assay [18] is T2, Estrogen receptor beta (Homo sapiens, UniProt Q92731). Description: ERβ–SRC-3 coactivator interaction inhibitors, confirmation, orthogonal assay, biochemical, ELISA, streptavidin-HRP readout (AID 1060).
Assay [19] has as its target T2, Estrogen receptor beta.
The target of the next assay is Protein Tat (Human immunodeficiency virus type 1 group M subtype B (isolate HXB2)(HIV-1), UniProt P04608). The assay is classed as functional.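 Note: tat binding to TAR RNA read out by fluorescence polarization.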
Assay [20] addresses Ubiquitin carboxyl-terminal hydrolase BAP1 (Homo sapiens, UniProt Q92560). Description: BAP1 deubiquitinase inhibitors, dose response, biochemical (AID 714). The class given is functional.
Assay [21] deals with T3, Ubiquitin-conjugating enzyme E2 N (Homo sapiens, UniProt P61088).
T3 sequence (P61088 whole entry): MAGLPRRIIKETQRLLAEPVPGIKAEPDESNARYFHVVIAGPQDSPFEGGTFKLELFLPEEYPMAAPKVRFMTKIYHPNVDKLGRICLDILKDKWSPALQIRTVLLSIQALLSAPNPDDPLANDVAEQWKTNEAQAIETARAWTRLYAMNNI
The class given is functional.

The target of another assay is T4, Bcl-2-related protein A1 (Mus musculus, UniProt Q07440).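 Note: confirmatory dose–response counterscreen on Bfl-1, used to check hits from a UBC13 polyubiquitin inhibitor campaign.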
T4 sequence (Q07440 whole entry): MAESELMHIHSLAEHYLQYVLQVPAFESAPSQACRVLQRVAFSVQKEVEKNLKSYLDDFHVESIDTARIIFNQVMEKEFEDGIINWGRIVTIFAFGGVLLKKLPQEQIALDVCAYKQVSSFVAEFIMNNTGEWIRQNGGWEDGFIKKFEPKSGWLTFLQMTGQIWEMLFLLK
The assay is classed as functional.

Assay [22] concerns the target T5, Genome polyprotein (Hepatitis C virus, UniProt Q2Q167). Description: HCV core protein dimerization inhibitors, dose response, biochemical, TR-FRET (AID 2159).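 Note: blocks dimerization of HCV core protein measured by TR-FRET between tagged core106 pairs.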 Set-up: species or system Hepacivirus hominis.
For assay [23], the target named is T3, Ubiquitin-conjugating enzyme E2 N. The class given is functional. This is another data set of the same source.
Assay [24] has as its target T5, Genome polyprotein. Description: Late stage assay provider counterscreen results for the probe development effort to identify inhibitors of Hepatitis C Virus (HCV) core protein dimerization: Luminescence-based biochemical AlphaScreen assay to identify inhibitors of HCV core dimerization. The class given is functional, Hepacivirus hominis.

Structures are written as SMILES. Active and inactive are the calls of the source.

The values below come from ChEMBL document CHEMBL1201862, “PubChem BioAssay data set” (2004).

T5 sequence (Q2Q167 whole entry): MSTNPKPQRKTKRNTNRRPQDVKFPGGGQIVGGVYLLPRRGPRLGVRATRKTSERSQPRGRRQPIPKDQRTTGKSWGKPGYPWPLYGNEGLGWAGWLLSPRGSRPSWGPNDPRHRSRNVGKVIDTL
T2 sequence (Q92731 whole entry): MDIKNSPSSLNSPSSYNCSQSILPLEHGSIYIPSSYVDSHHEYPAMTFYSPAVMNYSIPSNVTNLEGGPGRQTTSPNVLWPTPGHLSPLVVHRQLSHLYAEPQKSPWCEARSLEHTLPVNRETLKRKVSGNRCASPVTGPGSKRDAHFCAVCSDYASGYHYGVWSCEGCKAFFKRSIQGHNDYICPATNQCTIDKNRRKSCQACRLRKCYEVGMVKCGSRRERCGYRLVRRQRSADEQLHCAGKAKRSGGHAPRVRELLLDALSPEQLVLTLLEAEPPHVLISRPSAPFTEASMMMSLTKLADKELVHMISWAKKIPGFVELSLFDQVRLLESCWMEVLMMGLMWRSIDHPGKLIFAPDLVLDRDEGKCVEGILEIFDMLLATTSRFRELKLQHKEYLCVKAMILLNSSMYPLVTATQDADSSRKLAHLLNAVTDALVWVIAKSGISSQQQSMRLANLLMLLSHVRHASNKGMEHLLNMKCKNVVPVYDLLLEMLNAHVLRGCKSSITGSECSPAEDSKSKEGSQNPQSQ
Ubiquitin carboxyl-terminal hydrolase BAP1, sequence (Q92560 whole entry): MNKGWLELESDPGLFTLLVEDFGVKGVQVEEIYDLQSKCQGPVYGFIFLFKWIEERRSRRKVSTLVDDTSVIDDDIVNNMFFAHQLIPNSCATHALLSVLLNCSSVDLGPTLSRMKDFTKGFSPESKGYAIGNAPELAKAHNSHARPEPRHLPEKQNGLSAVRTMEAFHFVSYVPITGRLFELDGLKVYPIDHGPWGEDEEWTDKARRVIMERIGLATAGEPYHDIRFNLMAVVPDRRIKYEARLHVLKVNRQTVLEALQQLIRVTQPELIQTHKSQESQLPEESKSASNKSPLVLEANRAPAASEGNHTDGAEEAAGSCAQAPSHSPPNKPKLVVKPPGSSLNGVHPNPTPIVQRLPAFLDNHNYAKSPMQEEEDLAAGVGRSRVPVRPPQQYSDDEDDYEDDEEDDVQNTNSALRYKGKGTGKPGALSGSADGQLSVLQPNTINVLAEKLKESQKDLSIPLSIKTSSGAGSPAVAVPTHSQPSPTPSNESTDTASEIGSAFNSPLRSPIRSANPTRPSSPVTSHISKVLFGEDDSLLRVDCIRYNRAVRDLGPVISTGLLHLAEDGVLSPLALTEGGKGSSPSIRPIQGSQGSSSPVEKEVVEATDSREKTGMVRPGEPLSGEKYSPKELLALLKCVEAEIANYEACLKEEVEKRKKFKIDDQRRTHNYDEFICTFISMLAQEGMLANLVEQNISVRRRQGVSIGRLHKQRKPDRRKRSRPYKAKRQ
Protein Tat, sequence (P04608 whole entry): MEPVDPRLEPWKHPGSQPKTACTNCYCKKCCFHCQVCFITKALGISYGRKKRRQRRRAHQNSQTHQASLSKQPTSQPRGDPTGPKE
Paired box protein Pax-8, sequence (Q06710 whole entry): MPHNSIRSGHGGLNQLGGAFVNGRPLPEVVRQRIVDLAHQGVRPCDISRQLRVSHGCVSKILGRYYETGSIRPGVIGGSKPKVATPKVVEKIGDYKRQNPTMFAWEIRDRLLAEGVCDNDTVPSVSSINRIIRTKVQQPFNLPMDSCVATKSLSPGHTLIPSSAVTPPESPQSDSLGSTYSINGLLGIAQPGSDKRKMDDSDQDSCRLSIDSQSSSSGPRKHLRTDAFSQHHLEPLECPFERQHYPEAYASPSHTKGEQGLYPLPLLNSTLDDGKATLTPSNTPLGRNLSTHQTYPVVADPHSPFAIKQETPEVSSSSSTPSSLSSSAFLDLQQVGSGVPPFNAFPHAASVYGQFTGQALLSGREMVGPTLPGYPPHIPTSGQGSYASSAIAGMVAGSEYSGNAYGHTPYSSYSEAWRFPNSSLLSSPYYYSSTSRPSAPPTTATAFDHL

Turning to `CCC(=O)N1CCC2(CC1)CN(C(C)=O)[C@@H](CO)c1[nH]c3cc(OC)ccc3c12`, the AC50 in assay [1] was 20.1 µM (active).
`O=[N+]([O-])c1ccc(NCCCNS(=O)(=O)c2ccc(Cl)cc2)c(Cl)c1`: in assay [2], the IC50 was 3.17 µM (not active). Further, the CC50 in assay [3] was > 40 µM (active).
As for `COc1ccccc1NC(=O)N1C[C@@H]2N[C@H](C1)[C@@H]2c1ccc(/C=C/c2ccccc2)cc1`, the half-maximal activity concentration (AC50) is 1.96 µM (active) in assay [4], 9.74 µM (active) in assay [5] and 8.73 µM (active) in assay [6].
As to `COc1ccc(-c2cc(C)no2)cc1S(=O)(=O)NCc1cccc(C)c1`, the EC50 at Transthyretin is > 167 µM (inactive).
`O=C(Nc1cccc(Cl)c1)Nc1nnc(CSCCOc2ccc(Cl)cc2)s1`: the half-maximal activity concentration (AC50) in assay [7] was 6.08 µM (active); at Paired box protein Pax-8, 5.94 µM (active); in assay [8] it was 12.8 µM (active); in [9] it was 8.06 µM (active); in [10], 10.7 µM (active); in [11] it was 16 µM (active). The AC50 in assay [12] is 14.6 µM (active); with INS1, 3.05 µM (active); in assay [13], 26.1 µM (active); in [14] it was 15 µM (active); in assay [15] it was 4.51 µM (active); in assay [16] it was 22.2 µM (active). Besides, the AC50 in [17] was 5.65 µM (active).
`Cc1ccc(-c2nc3s/c(=C\c4ccco4)c(=O)n3n2)cc1`: the IC50 against Estrogen receptor beta [18] was > 50 µM (not active); on Estrogen receptor beta [19], > 50 µM (not active); on Protein Tat, > 100 µM (active); in assay [20], 22.6 µM (active).
Take `Cc1ccc(Cc2c(C)nc3nc(SCC(=O)NCCCN4CCCCCC4)nn3c2C)cc1`: the IC50 in [21] is > 20 µM (inactive); at Bcl-2-related protein A1 it was > 20 µM (inactive); at Genome polyprotein [22], 9.87 µM (active); in assay [23], 13.2 µM (active); on Genome polyprotein [24] it was 5 µM (active).
